# Patent publication US20260257992A1, “AGONISTS OF SMALL HETERODIMER PARTNER FOR CANCER THERAPY” (THE BOARD OF TRUSTEES OF THE UNIVERSITY OF ILLINOIS, priority 2023, published 2026)
# Tests used:
# [1] = test system: inflammasome associated genes; test: Inflammasome associated gene expression in BMDMs (LPS, nigericin); format: cell-based, mouse
# Protocol: FIG. 8A-8D. DSHN-OMe attenuates induction of inflammasome associated genes when BMDMs are treated with both LPS and nigericin, not LPS alone. * indicates P<0.05 when comparing to DMSO.
# Inflammasome activation, RNA extraction, quantitative real PCR. When comparing inflammasome responses, BMDMs were treated with 500 ng/mL LPS for 4 h 37° C. in complete RPMI 1640. After 4 hr priming, 15 μM Nigericin was added for 45 mins at 37° C. Next, media was removed, washed with PBS and inflammasome activation was assessed using qPCR or inflammasome caspase-1 activity was measured using Caspase-Glo® 1 inflammasome assay kit (G9951; Promega) according to manufacturer's instructions.
# CD8+ T cell expansion = test: Suppressiveness of T cells expanded with treated BMDMs (secondary CD8+ expansion); format: cell-based, mouse; details: BMDMs pretreated with compound
# Text: FIG. 6A-6F. […] (A) DSHN-OMe has minimal effects on BMDM viability (N=4-6/group). (B) DSHN-OMe treated BMDMs reduce Treg expansion in a dose related manner, with an increased biological maximum compared to DSHN (data normalized to mean vehicle, which was set at 100%. Non-linear three parameter regression shown, N=4/point). […] Different letters denote P<0.05. […] The percentage of divided CD8+ T cells in the second round was quantified. (N=3-5/group, different letters indicating statistical significance, 1-way ANOVA followed by Tukey). […] Vehicle (DMSO) treated BMDMs are indicated on the right for comparison. (F) Cellular uptake of DSHN-OMe greatly exceeds that of DSHN though time. RAW264.7 cells were treated with 50 µM of vehicle (DMSO) or indicated compound for 4 h, 8 h or 24 h. Compound was washed off, cells were lysed and resulting DSHN and DSHN-OMe contents were assessed by LC-MS/MS. Note different scales on y-axes. For DSHN treated cells, no DSHN-OMe was detected (not shown). For DSHN-OMe treated cells, some DSHN was detected. ND signifies when compounds were not detected. (N=3/group. 4 h timepoint was run in an experiment independent of the 8 and 24 hr timepoints).
# In order to better assess the potential cellular toxicity of DSHN-OMe, we treated BMDMs with increasing doses and measured their ability to reduce resazurin to resorufin (similar to the MTT viability assay).
# RAW 264.7 cells = test: Compound uptake assay (LC-MS/MS); format: in vitro ADME; details: for Intracellular compound concentration, 4 h / Intracellular compound concentration, 8 h / Intracellular compound concentration, 24 h: 50 μM
# Protocol: Conversion of a carboxylic acid to an ester is often associated with better cellular uptake. Therefore, we explored whether the kinetics of uptake differed between the two compounds, using RAW 264.7 cells as a model for myeloid immune cells. RAW 264.7 cells were treated with 50 μM of DSHN or DSHN-OME for 4, 8 or 24 h. At the appropriate time-point cells were washed and subjected to LC-MS/MS to quantify intracellular compound concentration. […] At 8 h, 12.6 nM DSHN was detected.
# Compound Uptake Assay. Cellular uptake of DSHN and DSHN-OMe was determined in RAW 264.7 cells cultured in 60×15 mm tissue culture dishes. Cells were treated with vehicle (0.1% DMSO), 50 μM DSHN or 50 μM DSHN-OMe for 4 h, 8 h, or 24 h. After incubation, cells were harvested, washed with PBS and cell pellets were incubated at −80° C. freezer. Next, cell pellets were resuspended in 200 μL 70:30 MeOH:H2O and sonicated to lyse cells. Debris from lysed cell suspension was removed by centrifugation. Resulting supernatant was analyzed by LC-MS/MS.
"Difference in intracellular concentration, DSHN-OMe versus DSHN (RAW 264.7 cells) [log]",SMILES,"Expression of inflammasome associated genes, priming and activation signal [1]",Suppressiveness of expanded T cells towards second set of naïve T cells (CD8+ expansion) (CD8+ T cell expansion),"Intracellular compound concentration, 4 h (RAW 264.7 cells)","Intracellular compound concentration, 8 h (RAW 264.7 cells)","Intracellular compound concentration, 24 h (RAW 264.7 cells)"
> 2,"CCN(CC)S(=O)(=O)c1cccc2cc(C(=O)OC)c(O)cc12 [DSHN-OMe, Methyl 5-(N,N-diethylsulfamoyl)-3-hydroxy-2-naphthoate]",able to blunt the expression of inflammasome associated genes,less suppressive,"7,481 nM","19,279 nM","11,089 nM"
,"CCN(CC)S(=O)(=O)c1cccc2cc(C(=O)O)c(O)cc12 [DSHN, reference compound]",able to blunt the expression of inflammasome associated genes,less suppressive,below detection limits,12.6 nM,no intracellular DSHN was detected
